# Source: ChEMBL document CHEMBL5653615 (J Biol Chem, 2013)
# Assays:
# [1] = molecular target: Cyclin-dependent kinase 2/cyclin E1 (Homo sapiens) (UniProt P24864+P24941); assay: Inhibition of human CDK2/cyclin E at 18.6 nM by HotSpot assay relative to control; format: protein-complex assay
# [2] = molecular target: Leucine-rich repeat serine/threonine-protein kinase 2 (Homo sapiens) (UniProt Q5S007); assay: Inhibition of human LRRK2 at 18.6 nM by HotSpot assay relative to control
# [3] = molecular target: Protein-tyrosine kinase 2-beta (Homo sapiens) (UniProt Q14289); assay: Inhibition of human PYK2 at 18.6 nM by HotSpot assay relative to control
# [4] = molecular target: Non-receptor tyrosine-protein kinase TYK2 (Homo sapiens) (UniProt P29597); assay: Inhibition of human TYK2 at 18.6 nM by HotSpot assay relative to control
# Sequence of Non-receptor tyrosine-protein kinase TYK2 (Homo sapiens) (P29597 whole entry): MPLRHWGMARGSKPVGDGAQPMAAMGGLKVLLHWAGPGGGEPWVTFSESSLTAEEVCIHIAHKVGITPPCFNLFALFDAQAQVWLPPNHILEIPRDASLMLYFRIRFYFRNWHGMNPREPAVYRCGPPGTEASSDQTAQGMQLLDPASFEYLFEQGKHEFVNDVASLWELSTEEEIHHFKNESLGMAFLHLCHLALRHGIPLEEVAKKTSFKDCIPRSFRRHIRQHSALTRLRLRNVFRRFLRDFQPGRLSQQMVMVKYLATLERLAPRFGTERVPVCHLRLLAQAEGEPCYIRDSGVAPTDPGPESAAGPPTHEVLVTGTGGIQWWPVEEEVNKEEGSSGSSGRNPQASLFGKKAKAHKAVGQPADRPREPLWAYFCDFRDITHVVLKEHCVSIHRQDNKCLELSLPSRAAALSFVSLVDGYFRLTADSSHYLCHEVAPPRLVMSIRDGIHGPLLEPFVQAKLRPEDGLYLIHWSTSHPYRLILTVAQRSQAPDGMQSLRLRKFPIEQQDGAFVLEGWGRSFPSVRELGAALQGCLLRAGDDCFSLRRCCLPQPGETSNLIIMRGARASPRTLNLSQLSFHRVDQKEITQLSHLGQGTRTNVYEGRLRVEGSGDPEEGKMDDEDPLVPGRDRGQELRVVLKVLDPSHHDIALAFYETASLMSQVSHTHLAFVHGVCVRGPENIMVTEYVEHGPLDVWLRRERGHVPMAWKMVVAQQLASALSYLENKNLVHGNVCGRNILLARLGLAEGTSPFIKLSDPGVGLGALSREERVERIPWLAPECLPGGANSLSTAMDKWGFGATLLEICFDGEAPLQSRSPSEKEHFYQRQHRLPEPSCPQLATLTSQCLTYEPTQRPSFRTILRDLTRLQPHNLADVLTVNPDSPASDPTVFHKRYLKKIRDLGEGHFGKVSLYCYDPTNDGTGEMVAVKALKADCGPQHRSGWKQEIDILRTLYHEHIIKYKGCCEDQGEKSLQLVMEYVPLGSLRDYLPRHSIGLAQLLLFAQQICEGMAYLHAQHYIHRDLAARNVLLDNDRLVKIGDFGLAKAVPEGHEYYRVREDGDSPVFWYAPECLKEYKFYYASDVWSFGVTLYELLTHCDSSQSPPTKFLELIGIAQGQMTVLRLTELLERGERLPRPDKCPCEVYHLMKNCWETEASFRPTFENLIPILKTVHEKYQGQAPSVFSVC
# [5] = molecular target: Tyrosine-protein kinase Lyn (Homo sapiens) (UniProt P07948); assay: Inhibition of human LYN at 1.82 nM by HotSpot assay relative to control
# Sequence of Tyrosine-protein kinase Lyn (Homo sapiens) (P07948 2-512 limits assumed): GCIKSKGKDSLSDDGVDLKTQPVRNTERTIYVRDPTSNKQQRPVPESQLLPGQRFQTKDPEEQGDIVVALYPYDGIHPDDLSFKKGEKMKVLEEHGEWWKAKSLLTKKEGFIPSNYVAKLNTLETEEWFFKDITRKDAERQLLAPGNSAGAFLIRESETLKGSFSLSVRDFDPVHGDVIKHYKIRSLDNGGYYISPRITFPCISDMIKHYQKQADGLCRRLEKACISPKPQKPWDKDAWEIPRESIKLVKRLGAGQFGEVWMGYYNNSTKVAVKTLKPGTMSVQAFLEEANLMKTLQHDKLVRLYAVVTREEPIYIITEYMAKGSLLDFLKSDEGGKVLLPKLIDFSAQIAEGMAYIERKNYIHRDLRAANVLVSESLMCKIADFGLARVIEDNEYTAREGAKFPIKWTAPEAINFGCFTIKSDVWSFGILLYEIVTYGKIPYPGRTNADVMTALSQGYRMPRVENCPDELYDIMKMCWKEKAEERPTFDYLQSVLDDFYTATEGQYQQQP
# [6] = molecular target: T1, Mitogen-activated protein kinase kinase kinase 5 (Homo sapiens) (UniProt Q99683); assay: Inhibition of human ASK1 at 1.82 nM by HotSpot assay relative to control
# T1 sequence (whole entry): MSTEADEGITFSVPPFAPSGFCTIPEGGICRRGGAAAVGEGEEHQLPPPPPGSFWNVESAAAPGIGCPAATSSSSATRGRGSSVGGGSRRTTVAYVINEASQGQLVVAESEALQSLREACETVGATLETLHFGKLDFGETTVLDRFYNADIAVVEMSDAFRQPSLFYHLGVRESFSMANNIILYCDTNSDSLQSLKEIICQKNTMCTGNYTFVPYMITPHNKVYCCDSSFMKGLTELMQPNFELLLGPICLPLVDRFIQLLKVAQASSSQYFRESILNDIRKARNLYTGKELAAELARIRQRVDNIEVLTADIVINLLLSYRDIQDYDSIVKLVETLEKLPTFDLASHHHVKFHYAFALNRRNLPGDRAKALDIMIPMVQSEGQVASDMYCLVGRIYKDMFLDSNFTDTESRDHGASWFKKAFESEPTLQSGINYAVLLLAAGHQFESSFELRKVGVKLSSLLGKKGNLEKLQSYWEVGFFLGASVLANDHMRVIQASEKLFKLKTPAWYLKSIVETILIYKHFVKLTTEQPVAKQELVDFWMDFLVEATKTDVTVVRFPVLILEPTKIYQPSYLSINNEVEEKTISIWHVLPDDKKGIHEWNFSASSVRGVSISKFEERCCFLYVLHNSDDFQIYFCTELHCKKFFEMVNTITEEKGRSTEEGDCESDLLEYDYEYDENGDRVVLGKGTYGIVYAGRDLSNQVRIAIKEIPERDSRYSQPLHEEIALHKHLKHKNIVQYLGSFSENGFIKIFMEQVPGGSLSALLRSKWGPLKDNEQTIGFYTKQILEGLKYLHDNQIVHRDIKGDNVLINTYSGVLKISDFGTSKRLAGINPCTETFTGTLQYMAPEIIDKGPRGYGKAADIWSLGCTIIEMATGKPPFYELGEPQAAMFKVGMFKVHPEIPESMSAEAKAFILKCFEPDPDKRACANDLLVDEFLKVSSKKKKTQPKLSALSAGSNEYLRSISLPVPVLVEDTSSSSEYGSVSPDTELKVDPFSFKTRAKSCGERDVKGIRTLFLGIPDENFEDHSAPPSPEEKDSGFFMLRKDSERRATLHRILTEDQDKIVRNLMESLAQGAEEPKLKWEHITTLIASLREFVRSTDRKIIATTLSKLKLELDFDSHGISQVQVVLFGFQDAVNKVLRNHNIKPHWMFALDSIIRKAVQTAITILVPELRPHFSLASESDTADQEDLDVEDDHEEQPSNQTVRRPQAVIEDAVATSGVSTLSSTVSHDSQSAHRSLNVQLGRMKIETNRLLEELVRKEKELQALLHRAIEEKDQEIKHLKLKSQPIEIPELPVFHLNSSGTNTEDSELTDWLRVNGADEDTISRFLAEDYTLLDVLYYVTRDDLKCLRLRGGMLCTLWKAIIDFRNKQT
# [7] = molecular target: Protein-tyrosine kinase 6 (Homo sapiens) (UniProt Q13882); assay: Inhibition of human BRK at 1.82 nM by HotSpot assay relative to control
# Sequence of Protein-tyrosine kinase 6 (Homo sapiens) (Q13882 whole entry, looked up): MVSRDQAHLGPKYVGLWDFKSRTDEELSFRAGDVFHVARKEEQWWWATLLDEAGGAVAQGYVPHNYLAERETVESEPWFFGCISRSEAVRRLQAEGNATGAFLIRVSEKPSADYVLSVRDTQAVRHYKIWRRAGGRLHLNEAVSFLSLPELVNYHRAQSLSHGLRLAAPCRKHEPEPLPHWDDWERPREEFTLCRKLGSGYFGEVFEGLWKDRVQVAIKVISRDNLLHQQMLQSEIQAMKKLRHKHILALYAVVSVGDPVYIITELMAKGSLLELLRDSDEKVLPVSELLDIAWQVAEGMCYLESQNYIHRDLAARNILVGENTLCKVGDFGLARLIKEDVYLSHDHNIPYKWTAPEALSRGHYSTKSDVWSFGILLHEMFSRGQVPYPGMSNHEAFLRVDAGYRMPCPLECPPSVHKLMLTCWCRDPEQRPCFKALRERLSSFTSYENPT
# [8] = molecular target: MAP kinase-activated protein kinase 2 (Homo sapiens) (UniProt P49137); assay: Inhibition of human MAPKAPK2 at 1.82 nM by HotSpot assay relative to control
# Sequence of MAP kinase-activated protein kinase 2 (Homo sapiens) (P49137 whole entry, looked up): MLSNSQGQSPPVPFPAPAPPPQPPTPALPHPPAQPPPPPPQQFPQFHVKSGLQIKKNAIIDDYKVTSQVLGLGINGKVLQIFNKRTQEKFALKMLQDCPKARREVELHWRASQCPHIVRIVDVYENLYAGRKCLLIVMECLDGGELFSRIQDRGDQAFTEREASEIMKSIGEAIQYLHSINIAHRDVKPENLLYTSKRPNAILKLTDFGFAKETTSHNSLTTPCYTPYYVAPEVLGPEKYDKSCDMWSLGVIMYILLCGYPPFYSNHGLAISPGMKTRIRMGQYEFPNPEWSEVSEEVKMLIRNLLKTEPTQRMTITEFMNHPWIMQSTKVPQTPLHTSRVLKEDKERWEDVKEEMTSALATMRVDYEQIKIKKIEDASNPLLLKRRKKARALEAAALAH
# [9] = molecular target: T2, Aurora kinase A (Homo sapiens) (UniProt O14965); assay: Inhibition of human Aurora A at 1.82 nM by HotSpot assay relative to control
# T2 sequence (whole entry): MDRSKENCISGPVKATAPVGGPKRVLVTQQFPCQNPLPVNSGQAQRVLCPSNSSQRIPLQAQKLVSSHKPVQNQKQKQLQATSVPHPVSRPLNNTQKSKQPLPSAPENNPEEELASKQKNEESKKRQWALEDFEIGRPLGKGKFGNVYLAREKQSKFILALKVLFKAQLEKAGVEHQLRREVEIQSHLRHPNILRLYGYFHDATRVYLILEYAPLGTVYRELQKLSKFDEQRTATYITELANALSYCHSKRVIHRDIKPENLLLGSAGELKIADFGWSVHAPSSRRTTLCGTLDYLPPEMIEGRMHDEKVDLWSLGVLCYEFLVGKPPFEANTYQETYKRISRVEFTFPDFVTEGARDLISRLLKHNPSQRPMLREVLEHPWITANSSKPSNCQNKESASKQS
# [10] = molecular target: T3, Megakaryocyte-associated tyrosine-protein kinase (Homo sapiens) (UniProt P42679); assay: Inhibition of human CTK at 1.82 nM by HotSpot assay relative to control
# T3 sequence (whole entry): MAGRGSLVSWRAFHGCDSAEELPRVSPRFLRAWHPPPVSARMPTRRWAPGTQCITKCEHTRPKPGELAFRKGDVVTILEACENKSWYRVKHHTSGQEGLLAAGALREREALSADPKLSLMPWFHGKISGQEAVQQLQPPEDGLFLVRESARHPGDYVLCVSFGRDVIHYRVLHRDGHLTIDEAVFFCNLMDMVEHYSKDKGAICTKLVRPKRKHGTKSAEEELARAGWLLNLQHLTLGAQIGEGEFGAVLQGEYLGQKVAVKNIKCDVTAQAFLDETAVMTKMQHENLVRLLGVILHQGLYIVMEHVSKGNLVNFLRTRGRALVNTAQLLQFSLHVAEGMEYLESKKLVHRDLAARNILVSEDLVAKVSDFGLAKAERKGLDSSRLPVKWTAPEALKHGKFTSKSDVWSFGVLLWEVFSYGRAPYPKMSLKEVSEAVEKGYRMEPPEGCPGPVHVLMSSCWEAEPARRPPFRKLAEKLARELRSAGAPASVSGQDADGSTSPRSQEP
# Sequence of Leucine-rich repeat serine/threonine-protein kinase 2 (Homo sapiens) (Q5S007 whole entry): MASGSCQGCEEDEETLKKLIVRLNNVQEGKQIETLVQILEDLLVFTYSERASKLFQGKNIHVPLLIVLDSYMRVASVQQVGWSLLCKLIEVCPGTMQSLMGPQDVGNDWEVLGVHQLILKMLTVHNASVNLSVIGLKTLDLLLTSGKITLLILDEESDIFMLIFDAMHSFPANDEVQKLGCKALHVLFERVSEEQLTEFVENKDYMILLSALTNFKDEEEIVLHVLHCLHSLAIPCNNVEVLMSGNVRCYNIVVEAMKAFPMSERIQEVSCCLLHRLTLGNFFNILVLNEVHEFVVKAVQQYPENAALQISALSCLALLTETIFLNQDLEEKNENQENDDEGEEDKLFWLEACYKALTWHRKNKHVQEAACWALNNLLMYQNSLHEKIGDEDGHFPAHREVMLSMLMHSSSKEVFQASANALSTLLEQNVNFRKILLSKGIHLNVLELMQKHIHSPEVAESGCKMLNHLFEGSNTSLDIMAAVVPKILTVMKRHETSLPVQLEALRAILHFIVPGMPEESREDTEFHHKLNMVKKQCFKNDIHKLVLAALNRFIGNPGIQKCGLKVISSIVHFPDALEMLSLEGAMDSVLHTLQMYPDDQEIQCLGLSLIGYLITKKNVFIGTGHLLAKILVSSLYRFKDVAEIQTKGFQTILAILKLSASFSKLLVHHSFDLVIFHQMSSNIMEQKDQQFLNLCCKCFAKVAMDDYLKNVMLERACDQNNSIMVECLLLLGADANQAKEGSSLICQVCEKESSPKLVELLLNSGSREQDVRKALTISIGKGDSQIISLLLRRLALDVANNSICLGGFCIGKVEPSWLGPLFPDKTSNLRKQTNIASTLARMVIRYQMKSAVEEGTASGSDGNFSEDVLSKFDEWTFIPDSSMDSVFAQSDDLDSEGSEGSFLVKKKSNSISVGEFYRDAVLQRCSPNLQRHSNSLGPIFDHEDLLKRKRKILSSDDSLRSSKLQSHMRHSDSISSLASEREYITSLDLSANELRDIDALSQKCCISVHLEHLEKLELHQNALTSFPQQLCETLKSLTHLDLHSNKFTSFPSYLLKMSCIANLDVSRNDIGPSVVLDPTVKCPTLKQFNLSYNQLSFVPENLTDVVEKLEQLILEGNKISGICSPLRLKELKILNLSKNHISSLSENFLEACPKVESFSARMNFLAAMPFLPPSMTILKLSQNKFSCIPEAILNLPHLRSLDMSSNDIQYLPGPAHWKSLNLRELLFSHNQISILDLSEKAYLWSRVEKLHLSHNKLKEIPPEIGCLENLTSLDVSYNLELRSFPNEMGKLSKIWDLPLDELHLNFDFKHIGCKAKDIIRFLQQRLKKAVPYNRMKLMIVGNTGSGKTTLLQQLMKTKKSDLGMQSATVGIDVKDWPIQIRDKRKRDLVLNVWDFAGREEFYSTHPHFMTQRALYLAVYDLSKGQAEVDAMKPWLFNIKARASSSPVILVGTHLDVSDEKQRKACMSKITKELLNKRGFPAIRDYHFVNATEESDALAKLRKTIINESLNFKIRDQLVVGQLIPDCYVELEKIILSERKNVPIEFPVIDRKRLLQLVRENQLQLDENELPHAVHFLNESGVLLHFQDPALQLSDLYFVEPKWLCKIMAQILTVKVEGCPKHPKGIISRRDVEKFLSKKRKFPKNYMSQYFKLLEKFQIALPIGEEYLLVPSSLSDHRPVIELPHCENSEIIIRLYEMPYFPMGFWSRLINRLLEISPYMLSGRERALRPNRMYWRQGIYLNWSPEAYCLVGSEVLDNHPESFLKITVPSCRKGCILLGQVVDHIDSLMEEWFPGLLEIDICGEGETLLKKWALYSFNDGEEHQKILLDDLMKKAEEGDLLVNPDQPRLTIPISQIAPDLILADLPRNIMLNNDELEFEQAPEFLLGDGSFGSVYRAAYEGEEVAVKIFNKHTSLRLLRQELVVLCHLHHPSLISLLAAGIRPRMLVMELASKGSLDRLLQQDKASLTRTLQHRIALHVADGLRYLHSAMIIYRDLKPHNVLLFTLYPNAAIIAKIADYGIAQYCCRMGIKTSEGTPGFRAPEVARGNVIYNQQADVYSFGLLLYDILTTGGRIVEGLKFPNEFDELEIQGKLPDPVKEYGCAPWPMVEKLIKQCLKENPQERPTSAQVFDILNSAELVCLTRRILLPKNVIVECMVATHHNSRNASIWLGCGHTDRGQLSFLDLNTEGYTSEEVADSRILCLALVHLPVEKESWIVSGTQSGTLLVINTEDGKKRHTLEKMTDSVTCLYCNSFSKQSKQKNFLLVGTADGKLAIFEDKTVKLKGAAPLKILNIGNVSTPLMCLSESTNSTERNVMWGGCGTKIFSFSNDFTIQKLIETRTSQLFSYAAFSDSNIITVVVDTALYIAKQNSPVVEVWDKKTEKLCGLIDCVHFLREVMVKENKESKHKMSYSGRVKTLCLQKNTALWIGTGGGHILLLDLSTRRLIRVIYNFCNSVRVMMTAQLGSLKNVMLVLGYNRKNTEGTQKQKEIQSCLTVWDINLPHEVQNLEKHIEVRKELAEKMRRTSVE
inhibition [1] [%],inhibition [2] [%],inhibition [3] [%],inhibition [4] [%],inhibition [5] [%],inhibition [6] [%],inhibition [7] [%],inhibition [8] [%],inhibition [9] [%],inhibition [10] [%],SMILES
2.03,-3.07,-4.64,-4.07,,,,,,,C[C@]1(O)C[C@@H](c2nc(-c3ccc4ccc(-c5ccccc5)nc4c3)c3c(N)nccn32)C1
,,,,3.66,-3.08,0.2,0.98,30,-1.93,C[C@@]1(C(=O)Nc2ccc(F)nc2)CCCN1c1nc(Nc2cc(C3CC3)n[nH]2)c2cccn2n1
